In the experiment the test system is TNF-alpha release in THP-1 cells. In words: LPS-induced TNF-alpha release in THP-1 cells. The experiment is classed as cell-based. As to conditions: Homo sapiens, THP-1, LPS-stimulated THP-1 cells; read-out: 50% inhibition in the LPS-induced TNF-alpha release in THP-1 cells assay at concentrations within the range. In outline:
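TNF-alpha in supernatants was quantified by sandwich ELISA against a log/log recombinant standard curve (0.125-16 ng/ml). Before this, THP-1 cells (1×10^6 cells/ml, serum-reduced) received compound at 1×10^−9 to 1×10^−6 M in 0.3% DMSO for 1 h, then LPS 20 μg/ml for 18 h.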
`COc1cc(OC)cc(C(=O)N2CCC(Cc3cccc(NC(=O)Nc4cc(C(C)(C)C)nn4-c4ccc(C)cc4)c3)CC2)c1` [Compound A73, 1-(5-tert-Butyl-2-p-tolyl-2H-pyrazol-3-yl)-3-{3-[1-(3,5-dimethoxy-benzoyl)-piperidin-4-ylmethyl]-phenyl}-urea]: the IC50 is 10 to 500 nM.

With `Cc1ccc(-n2nc(C(C)(C)C)cc2NC(=O)Nc2ccc(CC3CCN(C(=O)c4cc5cccnc5nc4C)CC3)cc2)cc1` [Compound A249, 1-(5-tert-Butyl-2-p-tolyl-2H-pyrazol-3-yl)-3-{4-[1-(2-methyl-[1,8]naphthyridine-3-carbonyl)-piperidin-4-ylmethyl]-phenyl}-urea], the IC50 was in the range of 10 to 500 nM. The value for `COC(=O)c1ccccc1S(=O)(=O)N1CCC(Cc2ccc(NC(=O)Nc3cc(C(C)(C)C)nn3-c3ccc(C)cc3)cc2)CC1` [Compound A609, 2-(4-{4-[3-(5-tert-Butyl-2-p-tolyl-2H-pyrazol-3-yl)-ureido]-benzyl}-piperidine-1-sulfonyl)-benzoic acid methyl ester] was 10 to 500 nM. The value for `Cc1ccc(-n2nc(C(C)(C)C)cc2NC(=O)Nc2cccc(CC3CCN(C(=O)c4ccc5cccnc5n4)CC3)c2)cc1` [Compound A8, 1-(5-tert-Butyl-2-p-tolyl-2H-pyrazol-3-yl)-3-{3-[1-([1,8]naphthyridine-2-carbonyl)-piperidin-4-ylmethyl]-phenyl}-urea] was 10 to 500 nM; that for `Cc1ccc(-n2nc(C(C)(C)C)cc2NC(=O)Nc2ccc(CC3CCN(C(=O)c4ccc(CO)cc4)CC3)cc2)cc1` [Compound A315, 1-(5-tert-Butyl-2-p-tolyl-2H-pyrazol-3-yl)-3-{4-[1-(4-hydroxymethyl-benzoyl)-piperidin-4-ylmethyl]-phenyl}-urea] was 10 to 500 nM; that for `Cc1ccc(-n2nc(C(C)(C)C)cc2NC(=O)Nc2cccc(CC3CCN(C(=O)c4cc(C)oc4C)CC3)c2)cc1` [Compound A29, 1-(5-tert-Butyl-2-p-tolyl-2H-pyrazol-3-yl)-3-{3-[1-(2,5-dimethyl-furan-3-carbonyl)-piperidin-4-ylmethyl]-phenyl}-urea] was 10 to 500 nM.

As for `COc1ccc(OC)c(C(=O)N2C3CCC2CC(Cc2ccc(NC(=O)Nc4cc(C(C)(C)C)nn4-c4ccc(C)cc4)cc2)C3)c1` (stereo not shown) [Compound A1647, 1-(5-tert-Butyl-2-p-tolyl-2H-pyrazol-3-yl)-3-{4-[8-(2,5-dimethoxy-benzoyl)-8-aza-bicyclo[3.2.1]oct-3-ylmethyl]-phenyl}-urea], the IC50 lay in the range of 10 to 500 nM.

With `Cc1ccc(-n2nc(C(C)(C)C)cc2NC(=O)Nc2ccc(CC3CCN(C(=O)c4ccc5ccccc5n4)CC3)cc2)cc1` [Compound A383, 1-(5-tert-Butyl-2-p-tolyl-2H-pyrazol-3-yl)-3-{4-[1-(quinoline-2-carbonyl)-piperidin-4-ylmethyl]-phenyl}-urea], the IC50 was in the range of 10 to 500 nM. For `Cc1ccc(-n2nc(C(C)(C)C)cc2NC(=O)Nc2cccc(CC3CCN(C(=O)c4ccc(N)c(OC(F)(F)F)c4)CC3)c2)cc1` [Compound A114, 1-{3-[1-(4-Amino-3-trifluoromethoxy-benzoyl)-piperidin-4-ylmethyl]-phenyl}-3-(5-tert-butyl-2-p-tolyl-2H-pyrazol-3-yl)-urea], the IC50 fell in the range of 10 to 500 nM. In the case of `Cc1ccc(-n2nc(C(C)(C)C)cc2NC(=O)Nc2ccc(CC3CCN(C(=O)CCc4ccco4)CC3)cc2)cc1` [Compound A274, 1-(5-tert-Butyl-2-p-tolyl-2H-pyrazol-3-yl)-3-{4-[1-(3-furan-2-yl-propionyl)-piperidin-4-ylmethyl]-phenyl}-urea] it was 10 to 500 nM. For `CC(=O)NCC(=O)N1C2CCC1CC(Cc1cccc(NC(=O)Nc3cc(C(C)(C)C)nn3-c3ccc(C)cc3)c1)C2` (stereo not shown) [Compound A766, N-[2-(3-{3-[3-(5-tert-Butyl-2-p-tolyl-2H-pyrazol-3-yl)-ureido]-benzyl}-8-aza-bicyclo[3.2.1]oct-8-yl)-2-oxo-ethyl]-acetamide], the IC50 lay in the range of 10 to 500 nM. The value for `Cc1ccc(-n2nc(C(C)(C)C)cc2NC(=O)Nc2cccc(CC3CCN(C(=O)c4ccoc4)CC3)c2)cc1` [Compound A92, 1-(5-tert-Butyl-2-p-tolyl-2H-pyrazol-3-yl)-3-{3-[1-(furan-3-carbonyl)-piperidin-4-ylmethyl]-phenyl}-urea] was 10 to 500 nM; that for `CC(=O)OCc1ccc(C(=O)N2CCC(Cc3cccc(NC(=O)Nc4cc(C(C)(C)C)nn4-c4ccc(C)cc4)c3)CC2)cc1` [Compound A148, Acetic acid 4-(4-{3-[3-(5-tert-butyl-2-p-tolyl-2H-pyrazol-3-yl)-ureido]-benzyl}-piperidine-1-carbonyl)-benzyl ester] was 10 to 500 nM. The value for `COc1ccc(CC(=O)N2CCC(Cc3cccc(NC(=O)Nc4cc(C(C)(C)C)nn4-c4ccc(C)cc4)c3)CC2)cc1OC` [Compound A69, 1-(5-tert-Butyl-2-p-tolyl-2H-pyrazol-3-yl)-3-(3-{1-[2-(3,4-dimethoxy-phenyl)-acetyl]-piperidin-4-ylmethyl}-phenyl)-urea] was 10 to 500 nM; that for `COc1cc(OC)c(C(=O)N2CCC(Cc3cccc(NC(=O)Nc4cc(C(C)(C)C)nn4-c4ccc(C)cc4)c3)CC2)c(OC)c1` [Compound A24, 1-(5-tert-Butyl-2-p-tolyl-2H-pyrazol-3-yl)-3-{3-[1-(2,4,6-trimethoxy-benzoyl)-piperidin-4-ylmethyl]-phenyl}-urea] was 10 to 500 nM. The value for `Cc1ccc(-n2nc(C(C)(C)C)cc2NC(=O)Nc2cccc(CC3CCN(C(=O)c4cccc(C)n4)CC3)c2)cc1` [Compound A146, 1-(5-tert-Butyl-2-p-tolyl-2H-pyrazol-3-yl)-3-{3-[1-(6-methyl-pyridine-2-carbonyl)-piperidin-4-ylmethyl]-phenyl}-urea] was 10 to 500 nM. Take `Cc1ccc(-n2nc(C(C)(C)C)cc2NC(=O)Nc2ccc(CC3CCN(C(=O)c4csc(-c5ccncc5)n4)CC3)cc2)cc1` [Compound A227, 1-(5-tert-Butyl-2-p-tolyl-2H-pyrazol-3-yl)-3-{4-[1-(2-pyridin-4-yl-thiazole-4-carbonyl)-piperidin-4-ylmethyl]-phenyl}-urea]: the IC50 was in the range of 10 to 500 nM.

Consider `COc1cccc(CC(=O)N2C3CCC2CC(Cc2ccc(NC(=O)Nc4cc(C(C)(C)C)nn4-c4ccc(C)cc4)cc2)C3)c1OC` (stereo not shown) [Compound A1312, 1-(5-tert-Butyl-2-p-tolyl-2H-pyrazol-3-yl)-3-(4-{8-[2-(2,3-dimethoxy-phenyl)-acetyl]-8-aza-bicyclo[3.2.1]oct-3-ylmethyl}-phenyl)-urea], for which the IC50 lay in the range of 10 to 500 nM. The value for `Cc1ccc(-n2nc(C(C)(C)C)cc2NC(=O)Nc2ccc(CC3CCN(C(=O)c4csnn4)CC3)cc2)cc1` [Compound A196, 1-(5-tert-Butyl-2-p-tolyl-2H-pyrazol-3-yl)-3-{4-[1-([1,2,3]thiadiazole-4-carbonyl)-piperidin-4-ylmethyl]-phenyl}-urea] was 10 to 500 nM; that for `Cc1ccc(-n2nc(C(C)(C)C)cc2NC(=O)Nc2ccc(CC3CCN(C(=O)c4cc(C)c(C)o4)CC3)cc2)cc1` [Compound A298, 1-(5-tert-Butyl-2-p-tolyl-2H-pyrazol-3-yl)-3-{4-[1-(4,5-dimethyl-furan-2-carbonyl)-piperidin-4-ylmethyl]-phenyl}-urea] was 10 to 500 nM; that for `Cc1ccc(-n2nc(C(C)(C)C)cc2NC(=O)Nc2cccc(CC3CCN(C(=O)c4ccc(CO)cc4)CC3)c2)cc1` [Compound A118, 1-(5-tert-Butyl-2-p-tolyl-2H-pyrazol-3-yl)-3-{3-[1-(4-hydroxymethyl-benzoyl)-piperidin-4-ylmethyl]-phenyl}-urea] was 10 to 500 nM. The value for `Cc1ccc(-n2nc(C(C)(C)C)cc2NC(=O)Nc2cccc(CC3CCN(C(=O)Cc4c[nH]c5ccccc45)CC3)c2)cc1` [Compound A168, 1-(5-tert-Butyl-2-p-tolyl-2H-pyrazol-3-yl)-3-{3-[1-(2-1H-indol-3-yl-acetyl)-piperidin-4-ylmethyl]-phenyl}-urea] was 10 to 500 nM; that for `Cc1ccc(-n2nc(C(C)(C)C)cc2NC(=O)Nc2ccc(CC3CCN(C(=O)c4cnn(-c5ccccc5)c4C)CC3)cc2)cc1` [Compound A331, 1-(5-tert-Butyl-2-p-tolyl-2H-pyrazol-3-yl)-3-{4-[1-(5-methyl-1-phenyl-1H-pyrazole-4-carbonyl)-piperidin-4-ylmethyl]-phenyl}-urea] was 10 to 500 nM; that for `COc1ccccc1CCC(=O)N1CCC(Cc2cccc(NC(=O)Nc3cc(C(C)(C)C)nn3-c3ccc(C)cc3)c2)CC1` [Compound A82, 1-(5-tert-Butyl-2-p-tolyl-2H-pyrazol-3-yl)-3-(3-{1-[3-(2-methoxy-phenyl)-propionyl]-piperidin-4-ylmethyl}-phenyl)-urea] was 10 to 500 nM. In the case of `Cc1ccc(-n2nc(C(C)(C)C)cc2NC(=O)Nc2ccc(CC3CCN(C(=O)c4ccoc4C)CC3)cc2)cc1` [Compound A244, 1-(5-tert-Butyl-2-p-tolyl-2H-pyrazol-3-yl)-3-{4-[1-(2-methyl-furan-3-carbonyl)-piperidin-4-ylmethyl]-phenyl}-urea] it was 10 to 500 nM; in that of `COc1cc(OC)cc(C(=O)N2CCC(Cc3ccc(NC(=O)Nc4cc(C(C)(C)C)nn4-c4ccc(C)cc4)cc3)CC2)c1` [Compound A266, 1-(5-tert-Butyl-2-p-tolyl-2H-pyrazol-3-yl)-3-{4-[1-(3,5-dimethoxy-benzoyl)-piperidin-4-ylmethyl]-phenyl}-urea], 10 to 500 nM. On to `Cc1ccc(-n2nc(C(C)(C)C)cc2NC(=O)Nc2cccc(CC3CCN(C(=O)c4ccc5ccccc5n4)CC3)c2)cc1` [Compound A184, 1-(5-tert-Butyl-2-p-tolyl-2H-pyrazol-3-yl)-3-{3-[1-(quinoline-2-carbonyl)-piperidin-4-ylmethyl]-phenyl}-urea], for which the IC50 lay within 10 to 500 nM. The value for `CCCCC#CC(=O)N1CCC(Cc2ccc(NC(=O)Nc3cc(C(C)(C)C)nn3-c3ccc(C)cc3)cc2)CC1` [Compound A238, 1-(5-tert-Butyl-2-p-tolyl-2H-pyrazol-3-yl)-3-[4-(1-hept-2-ynoyl-piperidin-4-ylmethyl)-phenyl]-urea] was 10 to 500 nM.

These data come from US7541368B2, “Pyrazoles as inhibitors of tumor necrosis factor” (Aventis Pharmaceuticals Inc., priority 2003, dated 2009).
